In ChEMBL document CHEMBL5625202, “Synthesis, characterization and anti-breast cancer activities of stachydrine derivatives” (Eur J Med Chem, 2023):
Activity calls are given as the source filed them. The calls are words filed in the database; no cut-off is given here.

Key:
[1] = Tmax in Sprague-Dawley rat plasma at 10 mg/kg, po measured upto 24 hrs by LC-MS/MS analysis; type: ADME, organism-based
[2] = Oral bioavailability in Sprague-Dawley rat at 10 mg/kg measured upto 24 hrs by LC-MS/MS analysis; type: ADME, organism-based; details: in vivo
[3] = Toxicity in BALB/c mouse implanted with mouse 4T1 cells assessed as increase in spleen edema at 0.2 mmol/Kg, po administered once every day for 14 days relative to control; type: organism-based; details: in vivo, 336 h, time 14 day
4T1 [4] = experiment: Induction of cell cycle arrest in mouse 4T1 cells assessed as accumulation of cells in G0/G1 phase at 10 uM incubated for 24 hrs by flow cytometry relative to control; type: functional
[5] = AUC (0 to t) in Sprague-Dawley rat plasma at 10 mg/kg, po measured upto 24 hrs by LC-MS/MS analysis; type: ADME, organism-based
4T1 [6] = experiment: Induction of apoptosis in mouse 4T1 cells assessed as caspase-3 activation at 10 uM incubated for 24 hrs by Western blot analysis; type: functional, cell-based
4T1 [7] = experiment: Induction of G0/G1 phase cell cycle arrest in mouse 4T1 cells assessed as decrease in G2/M phase cells at 1.25 to 40 uM incubated for 24 hrs by flow cytometry; type: functional, cell-based; details: dose 1.25-40 µM
[8] = Toxicity in BALB/c mouse implanted with mouse 4T1 cells assessed as increase in AST level at 0.2 mmol/Kg, po administered once every day for 14 days by routine blood analysis; type: organism-based; details: in vivo, 336 h, time 14 day
[9] = Toxicity in BALB/c mouse implanted with mouse 4T1 cells assessed as increase in mean platelet volume at 0.2 mmol/Kg, po administered once every day for 14 days by routine blood analysis; type: organism-based; details: in vivo, 336 h, time 14 day
4T1 [10] = experiment: Inhibition of cell migration in mouse 4T1 cells assessed as expansion of wound area at 30 micromol/mL incubated for 24 hrs by microscopic analysis; type: functional, cell-based; details: dose 30.0 µmol/ml
4T1 [11] = experiment: Inhibition of cell migration in mouse 4T1 cells assessed as reduction in wound healing incubated for 24 hrs by microscopic analysis; type: functional, cell-based
[12] = Toxicity in BALB/c mouse implanted with mouse 4T1 cells assessed as splenic edema at 0.2 mmol/Kg, po administered once every day for 14 days; type: organism-based; details: in vivo, 336 h, time 14 day
[13] = Toxicity in BALB/c mouse implanted with mouse 4T1 cells assessed as increase in white blood cells at 0.2 mmol/Kg, po administered once every day for 14 days by routine blood analysis; type: organism-based; details: in vivo, 336 h, time 14 day
[14] = Cmax in Sprague-Dawley rat plasma at 10 mg/kg, po measured upto 24 hrs by LC-MS/MS analysis; type: ADME, organism-based
[15] = Prodrug conversion in cell culture medium containing 10% FBS assessed as drug hydrolysis by measuring stachydrine release at 3 to 20 hrs; type: ADME; details: cattle; time 3-20 hrs
[16] = Prodrug conversion in carboxylesterase (unknown origin) solution assessed as drug hydrolysis by measuring stachydrine release at 3 to 20 hrs; type: ADME, Homo sapiens; details: time 3-20 hrs
[17] = Toxicity in BALB/c mouse implanted with mouse 4T1 cells assessed as increase in neutrophil granulocytes at 0.2 mmol/Kg, po administered once every day for 14 days by routine blood analysis; type: organism-based; details: in vivo, 336 h, time 14 day
4T1 [18] = experiment: Antitumor activity against mouse 4T1 cells implanted in BALB/c mouse assessed as tumor cell shrinkage at 0.2 mmol/Kg, po administered once every day for 14 days by histological staining based analysis; type: functional, organism-based; details: time 14.0 day
4T1 [19] = experiment: Induction of apoptosis in mouse 4T1 cells assessed as apoptotic rate at 1.25 micromol/L incubated for 24 hrs by Annexin-V/PI staining based flow cytometry relative to control; type: functional; details: dose 1.25 µmol/L, at 1.25 µM
[20] = Half life in Sprague-Dawley rat plasma at 10 mg/kg, po measured upto 24 hrs by LC-MS/MS analysis; type: ADME, organism-based
4T1 [21] = experiment: Induction of apoptosis in mouse 4T1 cells assessed as apoptotic rate at 40 micromol/L incubated for 24 hrs by Annexin-V/PI staining based flow cytometry relative to control; type: functional; details: dose 40 µmol/L, at 40 µM
4T1 [22] = experiment: Induction of apoptosis in mouse 4T1 cells assessed as decrease in Bcl2 expression at 10 uM incubated for 24 hrs by Western blot analysis; type: functional, cell-based
[23] = Prodrug conversion in Sprague-Dawley rat plasma assessed as Stachydrine release at 10 mg/kg, iv measured after 24 hrs by LC-MS/MS analysis; type: ADME, organism-based; details: in vivo
4T1 [24] = experiment: Antitumor activity against mouse 4T1 cells implanted in BALB/c mouse assessed as change in tumor weight at 0.2 mmol/Kg, po administered once every day for 14 days; type: functional, organism-based; details: time 14.0 day
4T1 [25] = experiment: Induction of mitochondrial membrane potential loss in mouse 4T1 cells assessed as green fluorescence at 10 uM incubated for 24 hrs by JC-1 staining based flow cytometric analysis (reference value: 11.7%); type: cell-based
4T1 [26] = experiment: Inhibition of cell invasion in mouse 4T1 cells at 30 micromol/mL incubated for 24 hrs by microscopic analysis; type: functional, cell-based; details: dose 30.0 µmol/ml
[27] = Toxicity in BALB/c mouse implanted with mouse 4T1 cells assessed as blurred spleen morphology at 0.2 mmol/Kg, po administered once every day for 14 days; type: organism-based; details: in vivo, 336 h, time 14 day
[28] = Toxicity in BALB/c mouse implanted with mouse 4T1 cells assessed as body weight loss at 0.2 mmol/Kg, po administered once daily for 14 days; type: organism-based; details: in vivo, 336 h, time 14 day
[29] = Toxicity in BALB/c mouse implanted with mouse 4T1 cells assessed as increase in ALT level at 0.2 mmol/Kg, po administered once every day for 14 days by routine blood analysis; type: organism-based; details: in vivo, 336 h, time 14 day
[30] = Toxicity in BALB/c mouse implanted with mouse 4T1 cells assessed as change in kidney histopathology at 0.2 mmol/Kg, po administered once every day for 14 days; type: organism-based; details: in vivo, 336 h, time 14 day
[31] = Toxicity in BALB/c mouse implanted with mouse 4T1 cells assessed as effect on CREA level at 0.2 mmol/Kg, po administered once every day for 14 days by routine blood analysis; type: organism-based; details: in vivo, 336 h, time 14 day
[32] = Toxicity in BALB/c mouse implanted with mouse 4T1 cells assessed as increase in lymphocytes at 0.2 mmol/Kg, po administered once every day for 14 days by routine blood analysis; type: organism-based; details: in vivo, 336 h, time 14 day
4T1 [33] = experiment: Anticancer activity against mouse 4T1 cells assessed as inhibition of cell growth incubated for 24 hrs by CCK-8 assay; type: functional, cell-based; details: 4T1, 24 h
4T1 [34] = experiment: Induction of G0/G1 phase cell cycle arrest in mouse 4T1 cells assessed as decrease in S phase cells at 1.25 to 40 uM incubated for 24 hrs by flow cytometry; type: functional, cell-based; details: dose 1.25-40 µM
4T1 [35] = experiment: Anticancer activity against mouse 4T1 cells assessed as inhibition of cell growth incubated for 72 hrs by CCK-8 assay; type: functional, cell-based; details: 4T1, 72 h
4T1 [36] = experiment: Induction of apoptosis in mouse 4T1 cells assessed as increase in Bax expression at 10 uM incubated for 24 hrs by Western blot analysis; type: functional, cell-based
[37] = Toxicity in BALB/c mouse implanted with mouse 4T1 cells assessed as effect on BUN level at 0.2 mmol/Kg, po administered once every day for 14 days by routine blood analysis; type: organism-based; details: in vivo, 336 h, time 14 day
[38] = Toxicity in BALB/c mouse implanted with mouse 4T1 cells assessed as change in liver histopathology at 0.2 mmol/Kg, po administered once every day for 14 days; type: organism-based; details: in vivo, 336 h, time 14 day
4T1 [39] = experiment: Antitumor activity against mouse 4T1 cells implanted in BALB/c mouse assessed as tumor growth inhibition at 0.2 mmol/Kg, po administered once every day for 14 days relative to control; type: functional; details: 4T1, 336 h, time 14 day, read-out: TGI

CCCCCCCCCCCCOC(=O)C1CCC[N+]1(C)C.[Cl-] (centres undefined)
Tmax [1]: 2 h | bioavailability [2]: 79.6% | Activity [3]: Toxic | Activity (4T1 [4]): ~56% | AUC(0-t) at 24 h [5]: 14800 ng·h/mL | Activity (4T1 [6]): Active | Activity (4T1 [7]): Active | Activity [8]: Toxic | Activity [9]: Non-Toxic | inhibition (4T1 [10]): Active | inhibition (4T1 [11]): Dose-Dependent Effect | Activity [12]: Toxic | Activity [13]: Non-Toxic | Cmax [14]: 6100 ng/mL | Drug metabolism [15]: Metabolite_Detected | Drug metabolism [16]: Metabolite_Detected | Activity [17]: Non-Toxic | Activity (4T1 [18]): Active | Activity (4T1 [19]): 38.5% | half-life [20]: 7.62 h | Activity (4T1 [21]): 71.3% | Activity (4T1 [22]): Active | Drug metabolism [23]: Metabolite_Detected | Activity (4T1 [24]): Active | Activity (4T1 [25]): 56.8% | inhibition (4T1 [26]): Active | Activity [27]: Toxic | Activity [28]: Toxic | Activity [29]: Toxic | Activity [30]: Non-Toxic | Activity [31]: Non-Toxic | Activity [32]: Non-Toxic | IC50 (4T1 [33]): 24.7 µM | Activity (4T1 [34]): Active | IC50 (4T1 [35]): 8.35 µM | Activity (4T1 [36]): Active | Activity [37]: Non-Toxic | Activity [38]: Non-Toxic | inhibition in vivo at 200 µmol/kg (4T1 [39]): 56.3%
